Assays:
[1] = test system: CHEAL (Lambsquarters, Common); assay: Postemergence herbicidal evaluation; format: in vivo, Chenopodium album; conditions: postemergence
In short: (§1)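 Visual 0–9 rating versus control (stand, vigor, malformation, size, chlorosis, overall appearance), taken four to five weeks post-spray. Two-week-old seedlings received roughly 0.0156–0.500 kg/ha active in acetone/water (50/50) with 0.5% TWEEN 20 via nozzle at 40 psi.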

CYPSE (Flatsedge) [2] = assay: Postemergence weed control under flooded paddy conditions; format: in vivo, Cyperus serotinus; conditions: postemergence weeds, rated 3 to 4 weeks after treatment
In short: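 Herbicidal effect is judged by eye on a 0–9 scale versus control, 3–4 weeks after dosing. Dosing is into flood water kept 1.5–3 cm over the soil, at about 0.0313–0.500 kg/ha in aqueous/acetone 50/50 v/v, on 3–5 cm weeds and 1.5–2.5-leaf rice seedlings.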

CYPIR (Rice Flatsedge) = assay: Preemergence weed control under flooded paddy conditions; format: in vivo, Cyperus iria; conditions: rated 3-4 weeks after treatment
In short: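 Herbicidal effect is scored visually on a 0-9 scale against an untreated control, three to four weeks after compounds are pipetted into the flood water (1.5 to 3 cm deep) over seeds planted in silt loam at 0.5 cm depth. Rates: about 0.0313 to 0.500 kg/ha.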

GALAP (Galium) [3] = assay: Preemergence herbicidal evaluation; format: in vivo, Galium aparine; conditions: preemergence, rated 4-5 weeks after treatment, 0-9 scale
In short: (§2)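 Sown cups got a single aqueous acetone spray of test compound (roughly 0.0156–0.500 kg/ha) before seedlings emerged. Evaluation, 4–5 weeks on, used a 0–9 visual scale covering plant stand, vigor, size, malformation, chlorosis and general appearance compared with controls.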

CASOB (Sicklepod) [4] = assay: Preemergence herbicidal evaluation; format: in vivo, Cassia obtusifolia; conditions: preemergence, rated 4-5 weeks after treatment, 0-9 scale
In short: as §2

ORYSAT (Rice, Tebonnet) = assay: Postemergence herbicidal evaluation; format: in vivo, Oryza sativa, (L.) Tebonnet; conditions: postemergence
In short: as §1

[5] = test system: SAGPY (Arrowhead (Pygmaea)); assay: Preemergence weed control under flooded paddy conditions; format: in vivo, Sagittaria pygmaea; conditions: rated 3-4 weeks after treatment
In short: (§3)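 First, seeds or propagules go into the top 0.5 cm of silt loam; next, water is held 1.5 to 3 cm over the soil; then compound (50/50 acetone/water) is pipetted into it at about 0.0313 to 0.500 kg/ha; finally plants are rated visually 0-9 after three to four weeks.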

[6] = test system: GLXMAW (Soybean, Williams); assay: Postemergence herbicidal evaluation; format: in vivo, Glycine max, (L.) Merr. cv Williams; conditions: postemergence
In short: as §1

GALAP (Galium) [7] = assay: Postemergence herbicidal evaluation; format: in vivo, Galium aparine; conditions: postemergence
In short: as §1

AMBEL (Ragweed, Common) = assay: Postemergence herbicidal evaluation; format: in vivo, Ambrosia artemisifolia; conditions: postemergence
In short: as §1

SETVI (Foxtail, Green) = assay: Postemergence herbicidal evaluation; format: in vivo, Setaria viridis; conditions: postemergence
In short: as §1

CYPSE (Flatsedge) [8] = assay: Preemergence weed control under flooded paddy conditions; format: in vivo, Cyperus serotinus; conditions: rated 3-4 weeks after treatment
In short: as §3

ECHCG (Barnyardgrass) = assay: Postemergence herbicidal evaluation; format: in vivo, Echinochloa crus-galli; conditions: postemergence
In short: as §1

CASOB (Sicklepod) [9] = assay: Postemergence herbicidal evaluation; format: in vivo, Cassia obtusifolia; conditions: postemergence
In short: as §1

ZEAMX (Corn, Field) = assay: Preemergence herbicidal evaluation; format: in vivo, Zea mays; conditions: preemergence, rated 4-5 weeks after treatment, 0-9 scale
In short: as §2

## CCOC(=O)CN1C(=O)C(CC(=O)OC(C)C(=O)OCC)S/C1=N/c1cc(-n2c(=O)cc(C(F)(F)F)n(C)c2=O)c(F)cc1Cl (stereo not drawn) [Compound 87]
[1]; rate 0.0156 kg/ha
  CHEAL herbicidal rating: 0.0
[1]; rate 0.0313 kg/ha
  CHEAL herbicidal rating: 0.0
[1]; rate 0.0625 kg/ha
  CHEAL herbicidal rating: 3.0
[1]; rate 0.1250 kg/ha
  CHEAL herbicidal rating: 4.0
[1]; rate 0.2500 kg/ha
  CHEAL herbicidal rating: 9.0
CYPSE (Flatsedge) [2]; Rate 0.0313 kg/ha
  Herbicidal rating CYPSE: 0.0
CYPSE (Flatsedge) [2]; Rate 0.0625 kg/ha
  Herbicidal rating CYPSE: 0.0
CYPSE (Flatsedge) [2]; Rate 0.1250 kg/ha
  Herbicidal rating CYPSE: 5.0
CYPSE (Flatsedge) [2]; Rate 0.2500 kg/ha
  Herbicidal rating CYPSE: 5.0
CYPSE (Flatsedge) [2]; Rate 0.5000 kg/ha
  Herbicidal rating CYPSE: 5.0
CYPIR (Rice Flatsedge); 0.0313 kg/ha
  CYPIR herbicidal effect rating: 5.0
CYPIR (Rice Flatsedge); 0.0625 kg/ha
  CYPIR herbicidal effect rating: 5.0
CYPIR (Rice Flatsedge); 0.1250 kg/ha
  CYPIR herbicidal effect rating: 5.0
CYPIR (Rice Flatsedge); 0.2500 kg/ha
  CYPIR herbicidal effect rating: 5.0
CYPIR (Rice Flatsedge); 0.5000 kg/ha
  CYPIR herbicidal effect rating: 7.0
GALAP (Galium) [3]; 0.1250 kg/ha
  GALAP rating: 0.0
GALAP (Galium) [3]; 0.2500 kg/ha
  GALAP rating: 0.0
GALAP (Galium) [3]; 0.5000 kg/ha
  GALAP rating: 7.0
CASOB (Sicklepod) [4]; 0.1250 kg/ha
  CASOB rating: 0.0
CASOB (Sicklepod) [4]; 0.2500 kg/ha
  CASOB rating: 0.0
CASOB (Sicklepod) [4]; 0.5000 kg/ha
  CASOB rating: 2.0
ORYSAT (Rice, Tebonnet); rate 0.0156 kg/ha
  ORYSAT herbicidal rating: 0.0
ORYSAT (Rice, Tebonnet); rate 0.0313 kg/ha
  ORYSAT herbicidal rating: 0.5
ORYSAT (Rice, Tebonnet); rate 0.0625 kg/ha
  ORYSAT herbicidal rating: 1.0
ORYSAT (Rice, Tebonnet); rate 0.1250 kg/ha
  ORYSAT herbicidal rating: 1.5
ORYSAT (Rice, Tebonnet); rate 0.2500 kg/ha
  ORYSAT herbicidal rating: 4.0
[5]; 0.0313 kg/ha
  SAGPY herbicidal effect rating: 0.0
[5]; 0.0625 kg/ha
  SAGPY herbicidal effect rating: 4.0
[5]; 0.1250 kg/ha
  SAGPY herbicidal effect rating: 4.0
[5]; 0.2500 kg/ha
  SAGPY herbicidal effect rating: 5.0
[5]; 0.5000 kg/ha
  SAGPY herbicidal effect rating: 7.0
[6]; rate 0.0156 kg/ha
  GLXMAW herbicidal rating: 4.5
[6]; rate 0.0313 kg/ha
  GLXMAW herbicidal rating: 5.5
[6]; rate 0.0625 kg/ha
  GLXMAW herbicidal rating: 7.5
[6]; rate 0.1250 kg/ha
  GLXMAW herbicidal rating: 8.0
[6]; rate 0.2500 kg/ha
  GLXMAW herbicidal rating: 9.0
GALAP (Galium) [7]; rate 0.0156 kg/ha
  GALAP herbicidal rating: 0.0
GALAP (Galium) [7]; rate 0.0313 kg/ha
  GALAP herbicidal rating: 0.0
GALAP (Galium) [7]; rate 0.0625 kg/ha
  GALAP herbicidal rating: 1.0
GALAP (Galium) [7]; rate 0.1250 kg/ha
  GALAP herbicidal rating: 1.0
GALAP (Galium) [7]; rate 0.2500 kg/ha
  GALAP herbicidal rating: 3.0
AMBEL (Ragweed, Common); rate 0.0156 kg/ha
  AMBEL herbicidal rating: 0.0
AMBEL (Ragweed, Common); rate 0.0313 kg/ha
  AMBEL herbicidal rating: 4.0
AMBEL (Ragweed, Common); rate 0.0625 kg/ha
  AMBEL herbicidal rating: 7.0
AMBEL (Ragweed, Common); rate 0.1250 kg/ha
  AMBEL herbicidal rating: 9.0
AMBEL (Ragweed, Common); rate 0.2500 kg/ha
  AMBEL herbicidal rating: 9.0
SETVI (Foxtail, Green); rate 0.0156 kg/ha
  SETVI herbicidal rating: 0.0
SETVI (Foxtail, Green); rate 0.0313 kg/ha
  SETVI herbicidal rating: 0.0
SETVI (Foxtail, Green); rate 0.0625 kg/ha
  SETVI herbicidal rating: 2.0
SETVI (Foxtail, Green); rate 0.1250 kg/ha
  SETVI herbicidal rating: 7.0
SETVI (Foxtail, Green); rate 0.2500 kg/ha
  SETVI herbicidal rating: 7.0
CYPSE (Flatsedge) [8]; 0.0313 kg/ha
  CYPSE herbicidal effect rating: 0.0
CYPSE (Flatsedge) [8]; 0.0625 kg/ha
  CYPSE herbicidal effect rating: 0.0
CYPSE (Flatsedge) [8]; 0.1250 kg/ha
  CYPSE herbicidal effect rating: 5.0
CYPSE (Flatsedge) [8]; 0.2500 kg/ha
  CYPSE herbicidal effect rating: 5.0
CYPSE (Flatsedge) [8]; 0.5000 kg/ha
  CYPSE herbicidal effect rating: 5.0
ECHCG (Barnyardgrass); rate 0.0156 kg/ha
  ECHCG herbicidal rating: 0.0
ECHCG (Barnyardgrass); rate 0.0313 kg/ha
  ECHCG herbicidal rating: 0.0
ECHCG (Barnyardgrass); rate 0.0625 kg/ha
  ECHCG herbicidal rating: 2.0
ECHCG (Barnyardgrass); rate 0.1250 kg/ha
  ECHCG herbicidal rating: 9.0
ECHCG (Barnyardgrass); rate 0.2500 kg/ha
  ECHCG herbicidal rating: 9.0
CASOB (Sicklepod) [9]; rate 0.0156 kg/ha
  CASOB herbicidal rating: 0.0
CASOB (Sicklepod) [9]; rate 0.0313 kg/ha
  CASOB herbicidal rating: 0.0
CASOB (Sicklepod) [9]; rate 0.0625 kg/ha
  CASOB herbicidal rating: 0.0
CASOB (Sicklepod) [9]; rate 0.1250 kg/ha
  CASOB herbicidal rating: 2.0
CASOB (Sicklepod) [9]; rate 0.2500 kg/ha
  CASOB herbicidal rating: 9.0
ZEAMX (Corn, Field); 0.1250 kg/ha
  ZEAMX rating: 0.0
ZEAMX (Corn, Field); 0.2500 kg/ha
  ZEAMX rating: 0.0
ZEAMX (Corn, Field); 0.5000 kg/ha
  ZEAMX rating: 1.0

Reference: patent US20020137929A1, “1 - (3-heterocyclylphenyl) isothiourea, -isourea, -guanidine and -amidine herbicidal agents” (Intellectual Property Department, BASF Aktiengesellschaft, priority 1998, published 2002)
